Test results published in PMC8694143 (Microbiology Spectrum, 2021).

Key:
Assay in all cases: MIC determination in broth
Type in all cases: cell-based, Staphylococcus aureus
MRSA ATCC 33592 = details: Table S5; STIP3 variants, highest conc. tested 100 μg/mL; cation-adjusted MH broth, ~10^5 CFU/mL, 2-fold dilution series, 37°C, 16 h
Protocol: (§1) M. luteus ATCC 4698, S. aureus ATCC 29213, a panel of 7 MRSA (ATCC MP-2) strains, which includes ATCC BAA-41, BAA-42, BAA-44, BAA-1683, BAA-2094, BAA-2313, and 33592, and a series of additional bacterial isolates from human and veterinary cases were used in this study (Table S6). Bacterial strains were routinely grown in lysogeny broth (LB: 10 g/L tryptone, 5 g/L yeast extract, 10 g/L NaCl) at 30°C (M. luteus) or 37°C (Staphylococcus spp.) prior to use in specific experiments described below.
(§2) The MICs were measured for bioactive peptides identified from the initial screen. Cation-adjusted Mueller-Hinton (MH) broth was used as the growth medium for MIC determination experiments. Bacterial cultures were diluted to an OD of 5 × 10^−4 (∼10^5 CFU/mL) in 200 μL MH broth mixed with peptides in a 2-fold dilution series arrayed in 96-well plates. Plates were incubated without shaking at 30 or 37°C depending on the organism.

MRSA ATCC BAA-1683 = details: STIP3 variants, highest conc. tested 100 μg/mL; cation-adjusted MH broth, ~10^5 CFU/mL, 2-fold dilution series, 37°C, 16 h
Protocol: as §1, §2

MRSA ATCC BAA-2094 = details: STIP3 variants, highest conc. tested 100 μg/mL; cation-adjusted MH broth, ~10^5 CFU/mL, 2-fold dilution series, 37°C, 16 h
Protocol: as §1, §2

MRSA ATCC BAA-2313 = details: STIP3 variants, highest conc. tested 100 μg/mL; cation-adjusted MH broth, ~10^5 CFU/mL, 2-fold dilution series, 37°C, 16 h
Protocol: as §1, §2

MRSA ATCC BAA-41 = details: STIP3 variants, highest conc. tested 100 μg/mL; cation-adjusted MH broth, ~10^5 CFU/mL, 2-fold dilution series, 37°C, 16 h
Protocol: as §1, §2

MRSA ATCC BAA-42 = details: STIP3 variants, highest conc. tested 100 μg/mL; cation-adjusted MH broth, ~10^5 CFU/mL, 2-fold dilution series, 37°C, 16 h
Protocol: as §1, §2

MRSA ATCC BAA-44 = details: STIP3 variants, highest conc. tested 100 μg/mL; cation-adjusted MH broth, ~10^5 CFU/mL, 2-fold dilution series, 37°C, 16 h
Protocol: as §1, §2

S. aureus ATCC 29213 = details: STIP3 variants, highest conc. tested 100 μg/mL; cation-adjusted MH broth, ~10^5 CFU/mL, 2-fold dilution series, 37°C, 16 h
Protocol: as §1, §2

Row | Substance | MIC, S. aureus ATCC 33592 (SCCmec III) (MRSA ATCC 33592) | MIC, S. aureus ATCC BAA 1683 (SCCmec IV) (MRSA ATCC BAA-1683) | MIC, S. aureus ATCC BAA 2094 (SCCmec V) (MRSA ATCC BAA-2094) | MIC, S. aureus ATCC BAA 2313 (SCCmec XI) (MRSA ATCC BAA-2313) | MIC, S. aureus ATCC BAA 41 (SCCmec II) (MRSA ATCC BAA-41) | MIC, S. aureus ATCC BAA 42 (SCCmec VI) (MRSA ATCC BAA-42) | MIC, S. aureus ATCC BAA 44 (SCCmec I) (MRSA ATCC BAA-44) | MIC, S. aureus ATCC 29213 (S. aureus ATCC 29213)
1 | TVAGLVKWILATVKKFA [STIP3-15, rationally designed STIP3-1 variant] | 12.5 µg/mL | 25 µg/mL | 25 µg/mL | 50 µg/mL | 50 µg/mL | 50 µg/mL | 25 µg/mL | 25 µg/mL
2 | TVDGLVKWILATVKKFA [STIP3-17, rationally designed STIP3-1 variant] | > (The > symbol indicates that no inhibition was observed at 100 μg/mL for the STIP3 variants) | > (The > symbol indicates that no inhibition was observed at 100 μg/mL for the STIP3 variants) | > (The > symbol indicates that no inhibition was observed at 100 μg/mL for the STIP3 variants) | > (The > symbol indicates that no inhibition was observed at 100 μg/mL for the STIP3 variants) | > (The > symbol indicates that no inhibition was observed at 100 μg/mL for the STIP3 variants) | > (The > symbol indicates that no inhibition was observed at 100 μg/mL for the STIP3 variants) | > (The > symbol indicates that no inhibition was observed at 100 μg/mL for the STIP3 variants) | > (The > symbol indicates that no inhibition was observed at 100 μg/mL for the STIP3 variants)
3 | TVGGLVKWILAAVKKFA [STIP3-12, rationally designed STIP3-1 variant] | 25 µg/mL | 25 µg/mL | 50 µg/mL | 25 µg/mL | 25 µg/mL | 25 µg/mL | 25 µg/mL | 25 µg/mL
4 | TVGGLVKWILDTFKKFA [STIP3-11, rationally designed STIP3-1 variant] | 50 µg/mL | 50 µg/mL | 100 µg/mL | 100 µg/mL | 50 µg/mL | 50 µg/mL | 100 µg/mL | 50 µg/mL
5 | TVGGLVKWILDTVKKFA-NH2 [STIP3-27, C-terminally amidated STIP3-1] | 50 µg/mL | 25 µg/mL | 25 µg/mL | 50 µg/mL | 25 µg/mL | 25 µg/mL | 25 µg/mL | 50 µg/mL
6 | TVGGLVKWILDVVKKFA [STIP3-9, rationally designed STIP3-1 variant] | 25 µg/mL | 25 µg/mL | 25 µg/mL | 25 µg/mL | 35 µg/mL | 25 µg/mL | 25 µg/mL | 25 µg/mL
7 | TVGGLVKWILDWVKKFA [STIP3-10, rationally designed STIP3-1 variant] | 100 µg/mL | > (The > symbol indicates that no inhibition was observed at 100 μg/mL for the STIP3 variants) | 100 µg/mL | 50 µg/mL | 100 µg/mL | 25 µg/mL | 200 µg/mL | 100 µg/mL
